Assay type in all cases: cell-based, human
Series [1] deals with SMN2 mRNA. Put plainly: Semi-quantitative RT-PCR (DdeI digestion) of SMN2FL and SMN2 Δ7 in GM03813 cells. As to conditions: GM03813, 72 h. As for the experimental part: Seventy-two hours later, total cellular RNA was isolated from the treated cells and reverse transcribed into cDNA. SMN2 mRNA expression was assessed with RT-qPCR using primer pairs specific for SMN2FL or SMN2 Δ7. SMN2 mRNA expression was also assessed by semi-quantitative RT-PCR using a primer pair that amplifies both SMN2FL and SMN2 Δ7 followed by DdeI digestion (PCR/digestion). […] After digestion, both bands were reduced by 115 bp, resulting in two products: 392 bp (SMN2FL) and 338 bp (SMN2 Δ7) as shown on the gel of FIG. 3D. FIG. 3A-3D show dose-dependent changes in SMN2FL and SMNΔ7 mRNA as assessed by RT-qPCR and PCR/digestion respectively. FIG. 3E-3G are graphic plots of data from quantitating the intensity of bands in FIG. 3D.
(§1) SMA patient derived fibroblasts were obtained from Coriell Institute (Camden, N.J., USA), including GM00232 (SMA type I with 2 copies of SMN2 gene) and GM03813 (SMA type II with 3 copies of SMN2 gene). These cells were cultured at 5% C02 and 37° C. in modified MEM medium (Gibco, Thermo Fisher Scientific, Carlsbad, Calif.) supplemented with 15% bovine calf serum (Sigma-Aldrich), 1% NEAA (Gibco) and 1% penicillin/streptomycin (Gibco). To transfect oligonucleotides including saRNAs, siRNA and ASO, cells were seeded into 6-well plates at a density of 1×10^5 cells/well and were transfected with oligonucleotides at different concentrations using RNAiMax (Invitrogen, Carlsbad, Calif.) according to the reverse transfection protocol provided by the manufacturer for 72 hours (unless otherwise specified). For Risdiplam treatment of cells, Risdiplam (HY-109101, MedChem Express Company, Monmouth Junction, N.J., USA) dissolved in DMSO was added directly to cells at desired concentration for 72 hours unless specified otherwise.
To amplify both SMN2FL and SMN2 Δ7 in one reaction, cDNA was amplified by semi-quantitative RT-PCR using primers that spans exon 7 of SMN2 (Table 5) (FIG. 2). The PCR reaction conditions were: 94° C. for 2 minutes (1 cycle), 98° C. for 10 seconds, 60° C. for 15 seconds, 72° C. for 32 seconds, cycled for 30 time with a final 5 minutes extension at 72° C. To further differentiate SMN1 mRNA from SMN2, the resultant PCR products of SMN were digested by DdeI restriction enzyme (R0175L, NEB) and then separated by 2% agarose gel. Due to a nucleotide variant on […] of SMN2, a DdeI recognition site exists in PCR products amplified from SMN2 gene but not from SMN1 gene, DdeI digestion releases a 115 bp fragment from both SMN2FL and SMN2 Δ7, resulting […]: 507 (SMN1FL), 338 (SMN2 Δ7), 392 (SMN2FL) and 115 bp (FIG. 2). TBP gene was also amplified as a RNA loading control. The DdeI digestion reaction conditions were: 37° C. for 60 minutes and 65° C. for 20 minutes, 1cycle.

Series [2] has as its system SMN2 mRNA. The series can be described thus: RT-qPCR of SMN2FL and SMN2 Δ7 mRNA in GM00232 cells. As to conditions: GM00232, 72 h. As for the experimental part:
(§2) To determine whether the combination of saRNA (DS06-0004) and ASO-10-27 has an enhanced effect on SMN2FL induction in type I SMA cells, GM00232 cells were transfected with DS06-0004 and ASO-10-27 alone or in combination at different concentrations for 72 hours. SMN2 expression was assessed in the treated cells by RT-qPCR (FIGS. 4A and 4D) and PCR/digestion (FIGS. 4B, 4C and 4E).
“GM00232 cells” refers to fibroblast cells provided by Coriell Institute for Medical Research. This cell line is described as SPINAL MUSCULAR ATROPHY I; SMA1. The donor subject has 2 copies of the SMN2 gene (data from several sources including Stabley et al. 2015, PMID 26247043) and is homozygous for deletion of exons 7 and 8 of the SMN1 gene. The relevant gene is SMN1; the chromosomal location is 5q12.2-q13.3, the allelic variant is described as exons 7 and 8 deleted; SPINAL MUSCULAR ATROPHY, TYPE I; and the identified mutation: is EX7-8DEL. The phenotype data derived from a fibroblast from skin (arm) of the following subject characterized as: Progressive muscular atrophy; absent deep tendon reflexes; abnormal EMG; donor subject has 2 copies of the SMN2 gene (data from several sources including Stabley et al. 2015, PMID 26247043) and is homozygous for deletion of exons 7 and 8 of the SMN1 gene.
as §1
For RNA isolation from cultured cells, total cellular RNA was isolated from treated cells using an RNeasy Plus Mini kit (Qiagen, Hilden, Germany) according to its manual. To isolated RNA from animal tissues, tissues were harvested and stored at RNA later (AM7021, Thermo Fisher). Total RNA was then isolated using MagPure Total RNA Micro LQ kit (Magen, R6621, China) by auto-pure96 machine (ALLSHENG, China). The resultant RNA (1 μg) was reverse transcribed into cDNA by using a PrimeScript RT kit containing gDNA Eraser (Takara, Shlga, Japan). The resultant cDNA was amplified in an ABI 7500 Fast Real-time PCR System (Applied Biosystems; Foster City, Calif.) using SYBR Premix Ex Taq 11 (Takara, Shlga, Japan) reagents and primers which specifically amplified full-length (SMN2FL) or A7 SMN2 mRNA (SMN2 Δ7) (FIG. 1). The reaction conditions were: 95° C. for 3 seconds (1 cycle) and 60° C. for 30 seconds (40 cycles). Amplification of TBP gene served as an internal control.
In general terms: In qPCR the cycle at which signal appears reflects the starting amount.

Series [3] has as its system SMN2 mRNA. Put plainly: Semi-quantitative RT-PCR/DdeI digestion of SMN2FL and SMN2 Δ7 in GM00232 cells. As to conditions: GM00232, 72 h. As for the experimental part:
as §2
as §1, with “For Risdiplam treatment of cells, Risdiplam (HY-109101, MedChem Express Company, Monmouth Junction, N.J., USA) dissolved in DMSO was added directly to cells at desired concentration for 72 hours unless specified otherwise.” left out
To amplify both SMN2FL and SMN2 Δ7 in one reaction, cDNA was amplified by semi-quantitative RT-PCR using primers that spans exon 7 of SMN2 (Table 5) (FIG. 2). […]

Series [4] relates to SMN2 mRNA. The series can be described thus: RT-qPCR of SMN2FL and SMN2 Δ7 mRNA in GM00232 cells. As to conditions: GM00232, 72 h. This is another data set of the same source.
[5] abbreviates: PCR/digestion (Example 1, FIG. 3E).

For Nusinersen [ASO-10-27], the “SMN2FL mRNA fold change” value with SMN2 mRNA [1] (25 nM, semi-quantitative RT-PCR/DdeI digestion (Example 4, FIG. 6B-6C)) was 2.1 fold; in the series on SMN2 mRNA [1] (alone or in combination at 10 nM, semi-quantitative RT-PCR (Example 10, FIG. 12B-12C)), 1.4 fold; with SMN2 mRNA [2] (1 nM (Example 2, FIG. 4A)), 1.3 fold; with SMN2 mRNA [2] (5 nM (Example 2)) it was 1.8 fold; in the series on SMN2 mRNA [2] (25 nM (Example 2)), 1.9 fold; with SMN2 mRNA [3] (25 nM, PCR/DdeI digestion (Example 2, FIG. 4B-4C)), 2.3 fold. The “concentration at which expression of SMN2FL reached its peak” value with SMN2 mRNA [1] (setting [5]) is reported as 10 nM. In addition, in the series with SMN2 mRNA [1] (setting [5]), the “concentration at which expression of SMNΔ7 almost approached the lowest value” was determined as 5 nM. In addition, the “SMN2 Δ7 mRNA change” value in the series on SMN2 mRNA [2] (1 nM, 5 nM and 25 nM (Example 2)) is on record as “decrease”.

On to `Cc1cn2nc(-c3cc(=O)n4cc(N5CCNC6(CC6)C5)ccc4n3)cc(C)c2n1` [Risdiplam], for which the “SMN2FL mRNA fold change” value with SMN2 mRNA [1] (1250 nM, PCR/DdeI digestion (Example 8, FIG. 10D-10F)) turned out to be 2.1 fold; with SMN2 mRNA [3] (1250 nM, PCR/DdeI digestion (Example 6, FIG. 8D-8F)), 2.3 fold; with SMN2 mRNA [4] (50 nM (Example 6, FIG. 8A-8C)) it was 1.2 fold; in the series with SMN2 mRNA [4] (250 nM (Example 6)), 1.8 fold; in the series on SMN2 mRNA [4] (1250 nM (Example 6)), 1.9 fold. For the same compound, in the series on SMN2 mRNA [4] (50 nM, 250 nM and 1250 nM (Example 6)), the “SMN2 Δ7 mRNA change” value is “decrease”.

As for “DS06-0004: saRNA targeting SMN2 promoter at -281; SEQ ID NO: 476/477 (Table 8: SEQ ID NO: 131/288) (chain 1 AGACGAGGCCUAAGCAACATT; chain 2 UGUUGCUUAGGCCUCGUCUTT; chemistry not given here)”, the “SMN2 Δ7 mRNA fold change” value in the series with SMN2 mRNA [2] (1 nM (Example 2)) is recorded as 1.5 fold; in the series with SMN2 mRNA [2] (5 nM (Example 2)), 1.9 fold; in the series with SMN2 mRNA [4] (1 nM (Example 6)), 1.6 fold; in the series on SMN2 mRNA [4] (5 nM (Example 6)) it was 1.6 fold; in the series on SMN2 mRNA [4] (25 nM (Example 2)) it was 2.1 fold; with SMN2 mRNA [4] (25 nM (Example 6)) it was 1.7 fold. Besides, the “SMN2FL mRNA fold change” value is listed as 1.7 fold in the series with SMN2 mRNA [2] (1 nM (Example 2, FIG. 4A)); 2.4 fold with SMN2 mRNA [2] (5 nM (Example 2)); 2.4 fold with SMN2 mRNA [2] (25 nM (Example 2)); 1.8 fold with SMN2 mRNA [4] (1 nM (Example 6)); 2.1 fold with SMN2 mRNA [4] (5 nM (Example 6)); 2.0 fold in the series on SMN2 mRNA [4] (25 nM (Example 6)).

(Values after US20230287416A1, “COMBINATORY TREATMENT OF SMA WITH SARNA AND MRNA MODULATORS” (RACTIGEN THERAPEUTICS, priority 2020, published 2023).)
